Source: the CheMixHub viscosity set
“And” between values parts separate entries of the source, which are not always exact repeats. Identical values can stand only once.

Experiment: xn = mol fraction of the nth substance listed

COc1ccccc1 + CO
Details | viscosity [mPa·s]
298.15 K, 101 kPa, x1 = 0.0501 | 0.586
298.15 K, 101 kPa, x1 = 0.1098 | 0.623
298.15 K, 101 kPa, x1 = 0.1821 | 0.662
298.15 K, 101 kPa, x1 = 0.2706 | 0.707
298.15 K, 101 kPa, x1 = 0.3822 | 0.756
298.15 K, 101 kPa, x1 = 0.5271 | 0.809
298.15 K, 101 kPa, x1 = 0.7214 | 0.886
298.15 K, 101.33 kPa, x1 = 0.1024 | 0.6111
298.15 K, 101.33 kPa, x1 = 0.2039 | 0.67
298.15 K, 101.33 kPa, x1 = 0.2982 | 0.7131
298.15 K, 101.33 kPa, x1 = 0.4027 | 0.7591
298.15 K, 101.33 kPa, x1 = 0.4998 | 0.8009
298.15 K, 101.33 kPa, x1 = 0.5991 | 0.8271
298.15 K, 101.33 kPa, x1 = 0.7068 | 0.8651
298.15 K, 101.33 kPa, x1 = 0.8061 | 0.8975
298.15 K, 101.33 kPa, x1 = 0.9023 | 0.9373
303 K, 101.3 kPa, x1 = 0.0499 | 0.5675
303 K, 101.3 kPa, x1 = 0.1091 | 0.6038
303 K, 101.3 kPa, x1 = 0.2686 | 0.6883
303 K, 101.3 kPa, x1 = 0.5242 | 0.7935
303 K, 101.3 kPa, x1 = 0.7199 | 0.8751
303.15 K, 101.33 kPa, x1 = 0.1024 | 0.574
303.15 K, 101.33 kPa, x1 = 0.2039 | 0.6257
303.15 K, 101.33 kPa, x1 = 0.2982 | 0.6672
303.15 K, 101.33 kPa, x1 = 0.4027 | 0.7035
303.15 K, 101.33 kPa, x1 = 0.4998 | 0.7455
303.15 K, 101.33 kPa, x1 = 0.5991 | 0.7718
303.15 K, 101.33 kPa, x1 = 0.7068 | 0.8059
303.15 K, 101.33 kPa, x1 = 0.8061 | 0.8374
303.15 K, 101.33 kPa, x1 = 0.9023 | 0.8779
308.15 K, 101.33 kPa, x1 = 0.1024 | 0.5506
308.15 K, 101.33 kPa, x1 = 0.2039 | 0.5983
308.15 K, 101.33 kPa, x1 = 0.2982 | 0.638
308.15 K, 101.33 kPa, x1 = 0.4027 | 0.6731
308.15 K, 101.33 kPa, x1 = 0.4998 | 0.7065
308.15 K, 101.33 kPa, x1 = 0.5991 | 0.735
308.15 K, 101.33 kPa, x1 = 0.7068 | 0.7683
308.15 K, 101.33 kPa, x1 = 0.8061 | 0.7978
308.15 K, 101.33 kPa, x1 = 0.9023 | 0.8373
313.15 K, 101.33 kPa, x1 = 0.1024 | 0.4934
313.15 K, 101.33 kPa, x1 = 0.2039 | 0.5372
313.15 K, 101.33 kPa, x1 = 0.2982 | 0.5706
313.15 K, 101.33 kPa, x1 = 0.4027 | 0.6023
313.15 K, 101.33 kPa, x1 = 0.4998 | 0.6345
313.15 K, 101.33 kPa, x1 = 0.5991 | 0.6601
313.15 K, 101.33 kPa, x1 = 0.7068 | 0.6865
313.15 K, 101.33 kPa, x1 = 0.8061 | 0.7174
313.15 K, 101.33 kPa, x1 = 0.9023 | 0.751

c1ccc2ccccc2c1 + CO
298.15 K, 101 kPa
Details | viscosity
x1 = 0.006 | 0.5509 mPa·s
x1 = 0.01 | 0.5564 mPa·s and 0.5619 mPa·s
x1 = 0.03 | 0.5893 mPa·s

CC1COC(=O)O1 (configuration not stated) + COC(=O)OC
298.15 K, 101.3 kPa
Details | viscosity [mPa·s]
x2 = 0.0944 | 2.217
x2 = 0.1815 | 1.965
x2 = 0.3215 | 1.618
x2 = 0.4861 | 1.287
x2 = 0.5752 | 1.138
x2 = 0.6827 | 0.98
x2 = 0.7254 | 0.924
x2 = 0.7801 | 0.856
x2 = 0.9012 | 0.724

Brc1ccc2[n-]cnc2c1.CCCCCCCCCCCCCC[P+](CCCCCC)(CCCCCC)CCCCCC + COCCOCCOCCOCCOC
viscosity [mPa·s], 100 kPa
Details | 293.15 K | 298.15 K | 303.15 K | 308.15 K | 313.15 K | 318.15 K | 323.15 K
x1 = 0.362 | 62 | – | – | – | – | – | –
x1 = 0.522 | 164 | 125 | 98 | 77 | 63 | 51 | –
x1 = 0.654 | 301 | 222 | 167 | 129 | 101 | 81 | 66
x1 = 0.782 | 631 | 449 | 326 | 243 | 185 | 143 | 114
x1 = 0.862 | 972 | 675 | 481 | 351 | 261 | 199 | 155
x1 = 0.898 | 1190 | 813 | 572 | 413 | 304 | 230 | 177

CCOCCn1cc[n+](CCC#N)c1.O=S(=O)([N-]S(=O)(=O)C(F)(F)F)C(F)(F)F + CS(C)=O
Details | viscosity [mPa·s]
303.15 K, 101.33 kPa, x1 = 0.7207 | 40.65

COc1ccccc1 + CS(C)=O
viscosity [mPa·s], 101.3 kPa
Details | x2 = 0.1034 | x2 = 0.203 | x2 = 0.3049 | x2 = 0.4058 | x2 = 0.5049 | x2 = 0.6063 | x2 = 0.7044 | x2 = 0.8039 | x2 = 0.9011
298.15 K | 1.049 | 1.113 | 1.184 | 1.259 | 1.342 | 1.443 | 1.544 | 1.666 | 1.808
303.15 K | 0.968 | 1.024 | 1.104 | – | 1.229 | 1.32 | 1.408 | 1.517 | 1.641
308.15 K | 0.899 | 0.949 | 1.008 | 1.068 | 1.133 | 1.214 | 1.292 | 1.388 | 1.5
